Results taken from patent US12227500B2, “Substituted pyrrolo[2,3-b]pyridines for suppressing toxic endoplasmic reticulum stress” (THE TRUSTEES OF COLUMBIA UNIVERSITY IN THE CITY OF NEW YORK, priority 2018, dated 2025).
Like-named read-outs stand apart in the source and are kept apart here.

Columns and labels:
MLK1/MAP3K9 = molecular target: T1, MLK1/MAP3K9 (Homo sapiens, UniProt P80192); assay: Radiolabeled ATP kinase assay (Reaction Biology Corp.), MLK1; type: biochemical; conditions: [Cmpd] 0.1 μM, 10 μM ATP
T1 construct: purchased Reaction Biology Corp
T1 sequence (P80192 whole entry): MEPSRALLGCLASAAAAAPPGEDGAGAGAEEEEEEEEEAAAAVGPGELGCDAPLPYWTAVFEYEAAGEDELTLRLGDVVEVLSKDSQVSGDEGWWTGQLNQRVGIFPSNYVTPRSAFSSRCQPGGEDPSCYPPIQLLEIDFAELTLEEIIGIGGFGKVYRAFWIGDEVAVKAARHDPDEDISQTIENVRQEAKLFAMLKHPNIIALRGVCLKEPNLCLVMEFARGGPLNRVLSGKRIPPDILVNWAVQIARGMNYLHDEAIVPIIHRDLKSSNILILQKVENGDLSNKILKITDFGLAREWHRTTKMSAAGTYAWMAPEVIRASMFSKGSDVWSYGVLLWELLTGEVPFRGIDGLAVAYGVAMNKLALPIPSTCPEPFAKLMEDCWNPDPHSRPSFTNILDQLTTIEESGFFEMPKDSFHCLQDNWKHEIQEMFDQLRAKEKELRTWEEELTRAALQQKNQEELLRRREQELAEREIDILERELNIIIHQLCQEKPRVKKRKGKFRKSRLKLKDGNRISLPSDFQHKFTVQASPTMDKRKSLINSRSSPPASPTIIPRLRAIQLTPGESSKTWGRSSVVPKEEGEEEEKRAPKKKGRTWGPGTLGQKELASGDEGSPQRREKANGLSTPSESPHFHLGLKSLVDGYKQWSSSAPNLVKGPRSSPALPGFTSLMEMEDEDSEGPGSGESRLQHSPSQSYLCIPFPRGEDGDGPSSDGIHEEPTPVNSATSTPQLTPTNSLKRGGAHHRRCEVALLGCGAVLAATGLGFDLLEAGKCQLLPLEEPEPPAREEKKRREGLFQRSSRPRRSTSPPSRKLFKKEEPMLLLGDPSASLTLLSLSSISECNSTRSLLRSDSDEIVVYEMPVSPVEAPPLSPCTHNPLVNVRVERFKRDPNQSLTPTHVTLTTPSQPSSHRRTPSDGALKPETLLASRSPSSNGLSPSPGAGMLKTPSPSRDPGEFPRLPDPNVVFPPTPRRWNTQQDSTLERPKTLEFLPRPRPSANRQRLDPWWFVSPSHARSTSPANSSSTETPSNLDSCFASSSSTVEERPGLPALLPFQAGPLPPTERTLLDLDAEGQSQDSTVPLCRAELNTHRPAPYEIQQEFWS
Description: (§1) Meanwhile, the same analogs were analyzed in a radiolabeled ATP assay (10 μM ATP; Reaction Biology Corp.) to compare the extent to which they could inhibit the activity of HGK, MLK1, or MLK3 in a cell-free environment (Table S3 and S4).

MLK3/MAP3K11 = molecular target: T2, MLK3/MAP3K11 (Homo sapiens, UniProt Q16584); assay: Radiolabeled ATP kinase assay (Reaction Biology Corp.), MLK3; type: biochemical; conditions: [Cmpd] 0.1 μM; 10 μM ATP
T2 construct: purchased Reaction Biology Corp
T2 sequence (Q16584 whole entry): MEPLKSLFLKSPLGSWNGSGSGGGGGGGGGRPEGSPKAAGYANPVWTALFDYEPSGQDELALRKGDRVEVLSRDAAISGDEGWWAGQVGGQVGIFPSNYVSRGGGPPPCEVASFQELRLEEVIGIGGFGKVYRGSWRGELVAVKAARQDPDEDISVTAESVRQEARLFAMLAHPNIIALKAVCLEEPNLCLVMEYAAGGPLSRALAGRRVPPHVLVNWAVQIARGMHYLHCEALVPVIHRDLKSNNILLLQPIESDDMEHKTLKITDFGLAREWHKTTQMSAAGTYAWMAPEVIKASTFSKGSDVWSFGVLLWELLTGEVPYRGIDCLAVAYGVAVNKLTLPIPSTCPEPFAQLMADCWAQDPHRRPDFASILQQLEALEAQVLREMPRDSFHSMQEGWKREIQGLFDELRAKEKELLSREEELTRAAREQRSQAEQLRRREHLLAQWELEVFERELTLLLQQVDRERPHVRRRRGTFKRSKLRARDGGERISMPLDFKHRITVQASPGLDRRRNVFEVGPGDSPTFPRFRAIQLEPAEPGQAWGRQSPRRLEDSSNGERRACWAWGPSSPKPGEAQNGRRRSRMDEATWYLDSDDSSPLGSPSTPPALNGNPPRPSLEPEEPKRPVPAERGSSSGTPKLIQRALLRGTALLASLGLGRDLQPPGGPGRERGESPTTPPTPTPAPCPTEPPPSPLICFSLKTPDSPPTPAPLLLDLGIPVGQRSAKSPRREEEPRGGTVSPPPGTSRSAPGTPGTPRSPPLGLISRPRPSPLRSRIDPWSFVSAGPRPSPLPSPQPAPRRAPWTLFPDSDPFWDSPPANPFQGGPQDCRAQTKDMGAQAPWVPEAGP
Description: as §1

HGK/MAP4K4 = HGK/MAP4K4 (Homo sapiens, UniProt O95819); assay: Radiolabeled ATP kinase assay (Reaction Biology Corp.), HGK; type: biochemical; set-up: purchased Reaction Biology Corp; conditions: 10 μM ATP, read-out: % Enzyme Activity (relative to DMSO controls), HGK/MAP4K4, Data 1; for remaining activity at 0.025 µM: [Cmpd] 0.025 μM; for remaining activity at 0.1 µM: [Cmpd] 0.1 μM
Chain of HGK/MAP4K4 (O95819 whole entry): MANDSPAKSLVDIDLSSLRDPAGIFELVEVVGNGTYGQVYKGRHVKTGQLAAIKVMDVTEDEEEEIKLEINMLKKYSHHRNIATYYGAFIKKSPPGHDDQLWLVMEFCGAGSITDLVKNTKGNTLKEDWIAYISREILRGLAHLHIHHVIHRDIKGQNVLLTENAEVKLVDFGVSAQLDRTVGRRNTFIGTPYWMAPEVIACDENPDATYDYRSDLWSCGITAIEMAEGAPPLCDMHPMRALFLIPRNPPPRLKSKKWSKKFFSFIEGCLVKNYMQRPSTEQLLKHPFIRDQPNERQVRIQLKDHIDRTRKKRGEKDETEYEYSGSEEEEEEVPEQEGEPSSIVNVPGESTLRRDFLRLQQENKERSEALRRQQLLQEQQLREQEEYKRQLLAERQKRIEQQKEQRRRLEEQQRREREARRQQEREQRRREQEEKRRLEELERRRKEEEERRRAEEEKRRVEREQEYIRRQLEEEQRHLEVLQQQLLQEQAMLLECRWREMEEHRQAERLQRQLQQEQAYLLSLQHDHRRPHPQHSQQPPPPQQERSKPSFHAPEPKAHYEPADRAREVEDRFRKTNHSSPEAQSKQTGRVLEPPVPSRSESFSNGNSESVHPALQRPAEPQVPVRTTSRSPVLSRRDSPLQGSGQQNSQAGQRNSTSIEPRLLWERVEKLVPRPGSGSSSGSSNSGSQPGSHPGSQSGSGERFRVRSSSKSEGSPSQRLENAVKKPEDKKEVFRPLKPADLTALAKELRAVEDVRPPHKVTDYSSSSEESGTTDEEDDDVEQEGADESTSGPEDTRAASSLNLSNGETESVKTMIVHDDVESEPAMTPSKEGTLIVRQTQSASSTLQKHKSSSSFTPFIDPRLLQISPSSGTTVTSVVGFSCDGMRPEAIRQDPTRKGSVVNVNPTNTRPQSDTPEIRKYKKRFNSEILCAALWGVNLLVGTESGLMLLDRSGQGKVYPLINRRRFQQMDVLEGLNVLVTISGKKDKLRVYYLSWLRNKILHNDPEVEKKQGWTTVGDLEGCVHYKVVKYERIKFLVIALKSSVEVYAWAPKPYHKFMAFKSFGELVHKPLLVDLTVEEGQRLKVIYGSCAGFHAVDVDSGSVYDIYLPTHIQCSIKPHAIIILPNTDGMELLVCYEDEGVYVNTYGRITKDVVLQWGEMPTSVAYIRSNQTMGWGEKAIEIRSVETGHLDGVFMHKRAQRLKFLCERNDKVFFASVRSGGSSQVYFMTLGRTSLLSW
Description: as §1

[1] = test system: human ES motor neurons carrying the ALS-causing SOD1^A4V mutation; assay: cells; type: cell-based; conditions: 72 h, 72 h; for EC50 / Emax: CPA 33 μM; for viability at 1 µM: CPA (33 μM) + compound (1 μM), read-out: Motor Neuron Survival, % untreated; for Emax: read-out: Emax (MN survival % untreated)
Description: Next, survival assays were performed with all the analogs at once to generate a low-variability dataset. All compounds were evaluated at concentrations ranging from 0.1-3.0 μM (five-point dilution) in three technical replicates and two biological replicates.

[2] = read-out: % Enzyme Activity Remaining (relative to DMSO controls), MLK1/MAP3K9, Data 1
[3] = read-out: % Enzyme Activity Remaining (relative to DMSO controls), MLK1/MAP3K9, Data 2
[4] = Homo sapiens, Neuron, read-out: EC50

SMILES | remaining activity at 0.1 µM (MLK1/MAP3K9; [2]) [%] | remaining activity at 0.1 µM (MLK1/MAP3K9; [3]) [%] | % Enzyme Activity Remaining (relative to DMSO controls), MLK3/MAP3K11, Data 1 (MLK3/MAP3K11) [%] | % Enzyme Activity Remaining (relative to DMSO controls), MLK3/MAP3K11, Data 2 (MLK3/MAP3K11) [%] | remaining activity at 0.025 µM (HGK/MAP4K4) [%] | remaining activity at 0.1 µM (HGK/MAP4K4) [%] | EC50 [1, 4] [nM] | viability at 1 µM ([1]; Homo sapiens, Neuron) [%] | Emax ([1]; Homo sapiens, Neuron) [%] | EC50 [1]
CN1CCN(Cc2ccc(-c3cnc4[nH]cc(-c5ccc(NC(=O)NC6CCCCC6)cc5)c4c3)cc2)CC1 [Compound 7aw, 1-Cyclohexyl-3-(4-(5-(4-((4-methylpiperazin-1-yl)methyl)phenyl)-1H-pyrrolo[2,3-b]pyridin-3-yl)phenyl)urea] | 79.8 | 79.4 | 65.23 | 66.67 | 85.4 | 58.5 | 406 | 27.5 | 27.5 | 
CC(=O)c1ccc(-c2c[nH]c3ncc(-c4ccc(CN5CCN(C)CC5)cc4)cc23)cc1 [Compound 7x, 1-(4-(5-(4-((4-Methylpiperazin-1-yl)methyl)phenyl)-1H-pyrrolo[2,3-b]pyridin-3-yl)phenyl)ethan-1-one] | 65.8 | 67.7 | 67.84 | 65.08 | 30.8 | 7.1 | 322 | 78.1 | 78.1 | 
CN1CCN(Cc2ccc(-c3cnc4[nH]cc(-c5ccccc5)c4c3)cc2)CC1 [Compound 7ac, 5-(4-((4-Methylpiperazin-1-yl)methyl)phenyl)-3-phenyl-1H-pyrrolo[2,3-b]pyridine] | 60.8 | 57.7 | 42.00 | 43.30 | 31.9 | 6.69 | 774 | 75.9 | 110 | 
CN1CCN(Cc2ccc(-c3cnc4[nH]cc(-c5cccc(OCc6ccccc6)c5)c4c3)cc2)CC1 [Compound 7ar, 3-(3-(Benzyloxy)phenyl)-5-(4-((4-methylpiperazin-1-yl)methyl)phenyl)-1H-pyrrolo[2,3-b]pyridine] | 70.1 | 68 | 44.17 | 45.09 | 55.5 | 27.4 | 583 | 37.4 | 37.4 | 
CN1CCN(Cc2ccc(-c3cnc4[nH]cc(-c5ccc6cnn(C)c6c5)c4c3)cc2)CC1 [Compound 7ag, 1-Methyl-6-(5-(4-((4-methylpiperazin-1-yl)methyl)phenyl)-1H-pyrrolo[2,3-b]pyridin-3-yl)-1H-indazole] | 50.9 | 50 | 54.67 | 52.80 | 32.5 | 7.91 | 418 | 73.3 | 88 | 
COC(=O)Nc1cccc(-c2c[nH]c3ncc(-c4ccc(CN5CCN(C)CC5)cc4)cc23)c1 [Compound 7al, Methyl (3-(5-(4-((4-methylpiperazin-1-yl)methyl)phenyl)-1H-pyrrolo[2,3-b]pyridin-3-yl)phenyl)carbamate] | 33.4 | 32.7 | 32.96 | 30.90 | 33.8 | 6.76 | 670 |  | 113 | 
COCCNC(=O)Nc1cccc(-c2c[nH]c3ncc(-c4ccc(CN5CCN(C)CC5)cc4)cc23)c1 [Compound 7az, 1-(2-Methoxyethyl)-3-(3-(5-(4-((4-methylpiperazin-1-yl)methyl)phenyl)-1H-pyrrolo[2,3-b]pyridin-3-yl)phenyl)urea] | 79 | 78.5 | 79.28 | 80.78 | 87.1 | 65 | 2990 | 22.9 | 51.5 | 
CN1CCN(Cc2ccc(-c3cnc4[nH]cc(-c5ccc(F)c(C(=O)NCc6ccco6)c5)c4c3)cc2)CC1 [Compound 7av, 2-Fluoro-N-(furan-2-ylmethyl)-5-(5-(4-((4-methylpiperazin-1-yl)methyl)phenyl)-1H-pyrrolo[2,3-b]pyridin-3-yl)benzamide] | 86 | 84.2 | 84.24 | 86.99 | 88.8 | 51.2 | 1050 | 34.5 | 53.5 | 
CNC(=O)Nc1ccc(-c2c[nH]c3ncc(-c4ccc(CN5CCN(C)CC5)cc4)cc23)cc1 [Compound 7am, 1-Methyl-3-(4-(5-(4-((4-methylpiperazin-1-yl)methyl)phenyl)-1H-pyrrolo[2,3-b]pyridin-3-yl)phenyl)urea] | 51 | 51.2 | 49.77 | 46.17 | 56 | 17.7 | 948 | 80 | 122 | 
COc1ccc(COc2ccc(-c3c[nH]c4ncc(-c5ccc(CN6CCN(C)CC6)cc5)cc34)cc2)cc1 [Compound 7ao, 3-(4-((4-Methoxybenzyl)oxy)phenyl)-5-(4-((4-methylpiperazin-1-yl)methyl)phenyl)-1H-pyrrolo[2,3-b]pyridine] | 49 | 47.1 | 35.75 | 32.77 | 21.3 | 1.98 |  | 95.9 | 95.9 | Ambiguous
CN1CCN(Cc2ccc(-c3cnc4[nH]cc(-c5ccc(Cl)cc5Cl)c4c3)cc2)CC1 [Compound 7ae, 3-(2,4-Dichlorophenyl)-5-(4-((4-methylpiperazin-1-yl)methyl)phenyl)-1H-pyrrolo[2,3-b]pyridine] | 92.5 | 91.8 | 84.17 | 86.93 | 67.9 | 42.7 | 533 | 32 | 32 | 
CN1CCN(Cc2ccc(-c3cnc4[nH]ccc4c3)cc2)CC1 [Compound 4, 5-(4-((4-Methylpiperazin-1-yl)methyl)phenyl)-1H-pyrrolo[2,3-b]pyridine] | 95.9 | 93.5 | 91.95 | 94.97 | 101 | 88.3 |  | 10.3 | 13.7 | Ambiguous
COC(=O)Nc1ccc(-c2c[nH]c3ncc(-c4ccc(CN5CCN(C)CC5)cc4)cc23)cc1 [Compound 7an, Methyl (4-(5-(4-((4-methylpiperazin-1-yl)methyl)phenyl)-1H-pyrrolo[2,3-b]pyridin-3-yl)phenyl)carbamate] | 68.7 | 65.4 | 65.74 | 63.06 | 39.9 | 10.2 | 534 | 75 | 100 | 
CN1CCN(Cc2ccc(-c3cnc4[nH]cc(-c5csc6ccccc56)c4c3)cc2)CC1 [Compound 7f, 3-(Benzo[b]thiophen-3-yl)-5-(4-((4-methylpiperazin-1-yl)methyl)phenyl)-1H-pyrrolo[2,3-b]pyridine] | 81.1 | 76.5 | 68.84 | 73.51 | 23.2 | 4.89 | 338 | 68.3 | 68.3 | 
CN1CCN(Cc2ccc(-c3cnc4[nH]cc(-c5cccc(C(F)(F)F)c5)c4c3)cc2)CC1 [Compound 7ab, 5-(4-((4-Methylpiperazin-1-yl)methyl)phenyl)-3-(3-(trifluoromethyl)phenyl)-1H-pyrrolo[2,3-b]pyridine] | 83.7 | 82.9 | 68.47 | 70.51 | 26.6 | 4.65 | 1280 | 60.7 | 60.7 | 
